Data published in PubChem BioAssay AID1420 (Emory University Molecular Libraries Screening Center, 2008).
Calls of active or inactive are those of the source. No rule for the calls is given here.

Biological target: Calpain-2 catalytic subunit (Sus scrofa) (UniProt P43367)
Experiment: m-calpain protease blockers, concentration series – biochemical, fluorogenic peptide substrate, dose response (AID 1420)
Details: purified calpain II, 30 min

Sequence of Calpain-2 catalytic subunit (Sus scrofa) (P43367 whole entry, looked up): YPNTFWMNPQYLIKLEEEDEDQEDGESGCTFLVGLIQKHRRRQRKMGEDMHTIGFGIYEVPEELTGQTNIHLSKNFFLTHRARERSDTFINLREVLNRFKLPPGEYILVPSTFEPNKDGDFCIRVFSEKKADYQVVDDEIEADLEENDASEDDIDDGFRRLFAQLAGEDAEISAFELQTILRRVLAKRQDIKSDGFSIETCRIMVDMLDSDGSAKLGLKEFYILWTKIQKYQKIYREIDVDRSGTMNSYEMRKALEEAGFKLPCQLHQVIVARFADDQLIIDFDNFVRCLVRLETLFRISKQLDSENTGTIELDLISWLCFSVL

**Q.** Which IC50 does the source give for `CC(C)(C)C1CCC(=NNc2ccc(S(N)(=O)=O)cc2[N+](=O)[O-])CC1` (stereo unspecified) here?
**A.** The IC50 was “inactive”.
